Experimental data: the NIST ThermoML archive (doi:10.1021/je025630q)
Numbers after ± are expanded uncertainties.

Experiment: compressibility factor (dimensionless); xn = mol fraction of the nth substance listed
Settings: Gas, Burnett expansion method

Structure (SMILES): CF [fluoromethane] + O=C=O
- compressibility factor (323.15 K, 1023.9 kPa, x2 = 0.619): 0.9523 ± 0.0001
- compressibility factor (323.15 K, 1109.6 kPa, x2 = 0.189): 0.9349 ± 0.0001
- compressibility factor (323.15 K, 1394.9 kPa, x2 = 0.378): 0.9259 ± 0.0001
- compressibility factor (323.15 K, 1451.1 kPa, x2 = 0.791): 0.9369 ± 0.0001
- compressibility factor (323.15 K, 1495.6 kPa, x2 = 0.619): 0.9293 ± 0.0001
- compressibility factor (323.15 K, 1606.1 kPa, x2 = 0.189): 0.904 ± 0.0001
- compressibility factor (323.15 K, 2009.1 kPa, x2 = 0.378): 0.8909 ± 0.0001
- compressibility factor (323.15 K, 2102.7 kPa, x2 = 0.791): 0.907 ± 0.0001
- compressibility factor (323.15 K, 2158.3 kPa, x2 = 0.619): 0.8959 ± 0.0001
- compressibility factor (323.15 K, 2286.6 kPa, x2 = 0.189): 0.8598 ± 0.0001
- compressibility factor (323.15 K, 2838.8 kPa, x2 = 0.378): 0.8409 ± 0.0001
- compressibility factor (323.15 K, 2997.8 kPa, x2 = 0.791): 0.8639 ± 0.0001
- compressibility factor (323.15 K, 3058.6 kPa, x2 = 0.619): 0.8482 ± 0.0001
- compressibility factor (323.15 K, 3176.6 kPa, x2 = 0.189): 0.798 ± 0.0001
- compressibility factor (323.15 K, 3899.6 kPa, x2 = 0.378): 0.7717 ± 0.0001
- compressibility factor (323.15 K, 4170 kPa, x2 = 0.791): 0.8027 ± 0.0001
- compressibility factor (323.15 K, 4217.2 kPa, x2 = 0.619): 0.7813 ± 0.0001
- compressibility factor (323.15 K, 4257.2 kPa, x2 = 0.189): 0.7144 ± 0.0001
- compressibility factor (323.15 K, 5138.4 kPa, x2 = 0.378): 0.6793 ± 0.0001
- compressibility factor (323.15 K, 5587.6 kPa, x2 = 0.619): 0.6915 ± 0.0001
- compressibility factor (323.15 K, 5596 kPa, x2 = 0.791): 0.7197 ± 0.0001
- compressibility factor (333.15 K, 120.3 kPa, x2 = 0.392): 0.9924 ± 0.0001
- compressibility factor (333.15 K, 128.5 kPa, x2 = 0.793): 0.9965 ± 0.0001
- compressibility factor (333.15 K, 130.5 kPa, x2 = 0.572): 0.9947 ± 0.0001
- compressibility factor (333.15 K, 141.4 kPa, x2 = 0.219): 0.9909 ± 0.0001
- compressibility factor (333.15 K, 179.8 kPa, x2 = 0.392): 0.9911 ± 0.0001
- compressibility factor (333.15 K, 191.9 kPa, x2 = 0.793): 0.9938 ± 0.0001
- compressibility factor (333.15 K, 194.8 kPa, x2 = 0.572): 0.9922 ± 0.0001
- compressibility factor (333.15 K, 211.2 kPa, x2 = 0.219): 0.9886 ± 0.0001
- compressibility factor (333.15 K, 268.3 kPa, x2 = 0.392): 0.9879 ± 0.0001
- compressibility factor (333.15 K, 286.2 kPa, x2 = 0.793): 0.9901 ± 0.0001
- compressibility factor (333.15 K, 290.4 kPa, x2 = 0.572): 0.9884 ± 0.0001
- compressibility factor (333.15 K, 314.8 kPa, x2 = 0.219): 0.9843 ± 0.0001
- compressibility factor (333.15 K, 399.3 kPa, x2 = 0.392): 0.9824 ± 0.0001
- compressibility factor (333.15 K, 426 kPa, x2 = 0.793): 0.9846 ± 0.0001
- compressibility factor (333.15 K, 432.2 kPa, x2 = 0.572): 0.9824 ± 0.0001
- compressibility factor (333.15 K, 467.7 kPa, x2 = 0.219): 0.977 ± 0.0001
- compressibility factor (333.15 K, 592.5 kPa, x2 = 0.392): 0.9737 ± 0.0001
- compressibility factor (333.15 K, 632.5 kPa, x2 = 0.793): 0.9765 ± 0.0001
- compressibility factor (333.15 K, 641.1 kPa, x2 = 0.572): 0.9736 ± 0.0001
- compressibility factor (333.15 K, 692.1 kPa, x2 = 0.219): 0.9657 ± 0.0001
- compressibility factor (333.15 K, 874.8 kPa, x2 = 0.392): 0.9605 ± 0.0001
- compressibility factor (333.15 K, 935.3 kPa, x2 = 0.793): 0.9647 ± 0.0001
- compressibility factor (333.15 K, 946.8 kPa, x2 = 0.572): 0.9606 ± 0.0001
- compressibility factor (333.15 K, 1017.9 kPa, x2 = 0.219): 0.9489 ± 0.0001
- compressibility factor (333.15 K, 1282.7 kPa, x2 = 0.392): 0.9408 ± 0.0001
- compressibility factor (333.15 K, 1375.1 kPa, x2 = 0.793): 0.9475 ± 0.0001
- compressibility factor (333.15 K, 1389.2 kPa, x2 = 0.572): 0.9416 ± 0.0001
- compressibility factor (333.15 K, 1484.9 kPa, x2 = 0.219): 0.9247 ± 0.0001
- compressibility factor (333.15 K, 1863.4 kPa, x2 = 0.392): 0.913 ± 0.0001
- compressibility factor (333.15 K, 2004.2 kPa, x2 = 0.793): 0.9226 ± 0.0001
- compressibility factor (333.15 K, 2018.3 kPa, x2 = 0.572): 0.9138 ± 0.0001
- compressibility factor (333.15 K, 2137.2 kPa, x2 = 0.219): 0.8891 ± 0.0001
- compressibility factor (333.15 K, 2666.7 kPa, x2 = 0.392): 0.8729 ± 0.0001
- compressibility factor (333.15 K, 2882 kPa, x2 = 0.793): 0.8863 ± 0.0001
- compressibility factor (333.15 K, 2888.7 kPa, x2 = 0.572): 0.8738 ± 0.0001
- compressibility factor (333.15 K, 3016.4 kPa, x2 = 0.219): 0.8383 ± 0.0001
- compressibility factor (333.15 K, 3728.6 kPa, x2 = 0.392): 0.8154 ± 0.0001
- compressibility factor (333.15 K, 4045.3 kPa, x2 = 0.572): 0.8174 ± 0.0001
- compressibility factor (333.15 K, 4063.7 kPa, x2 = 0.793): 0.8348 ± 0.0001
- compressibility factor (333.15 K, 4136 kPa, x2 = 0.219): 0.7679 ± 0.0001
- compressibility factor (333.15 K, 5046.6 kPa, x2 = 0.392): 0.7372 ± 0.0001
- compressibility factor (333.15 K, 5488.2 kPa, x2 = 0.572): 0.7409 ± 0.0001
- compressibility factor (333.15 K, 5565.8 kPa, x2 = 0.793): 0.7639 ± 0.0001
- compressibility factor (343.15 K, 125.5 kPa, x2 = 0.402): 0.9971 ± 0.0001
- compressibility factor (343.15 K, 125.6 kPa, x2 = 0.787): 0.996 ± 0.0001
- compressibility factor (343.15 K, 128.3 kPa, x2 = 0.591): 0.9967 ± 0.0001
- compressibility factor (343.15 K, 135.4 kPa, x2 = 0.18): 0.9953 ± 0.0001
- compressibility factor (343.15 K, 187.3 kPa, x2 = 0.402): 0.9939 ± 0.0001
- compressibility factor (343.15 K, 187.7 kPa, x2 = 0.787): 0.9941 ± 0.0001
- compressibility factor (343.15 K, 191.6 kPa, x2 = 0.591): 0.9938 ± 0.0001
- compressibility factor (343.15 K, 202 kPa, x2 = 0.18): 0.9914 ± 0.0001
- compressibility factor (343.15 K, 279.1 kPa, x2 = 0.402): 0.9895 ± 0.0001
- compressibility factor (343.15 K, 280.1 kPa, x2 = 0.787): 0.9911 ± 0.0001
- compressibility factor (343.15 K, 285.7 kPa, x2 = 0.591): 0.9901 ± 0.0001
- compressibility factor (343.15 K, 300.8 kPa, x2 = 0.18): 0.9865 ± 0.0001
- compressibility factor (343.15 K, 415.1 kPa, x2 = 0.402): 0.9834 ± 0.0001
- compressibility factor (343.15 K, 417.3 kPa, x2 = 0.787): 0.9864 ± 0.0001
- compressibility factor (343.15 K, 425.2 kPa, x2 = 0.591): 0.9845 ± 0.0001
- compressibility factor (343.15 K, 447 kPa, x2 = 0.18): 0.9794 ± 0.0001
- compressibility factor (343.15 K, 615.9 kPa, x2 = 0.402): 0.9747 ± 0.0001
- compressibility factor (343.15 K, 620.2 kPa, x2 = 0.787): 0.9794 ± 0.0001
- compressibility factor (343.15 K, 631.2 kPa, x2 = 0.591): 0.9764 ± 0.0001
- compressibility factor (343.15 K, 662 kPa, x2 = 0.18): 0.969 ± 0.0001
- compressibility factor (343.15 K, 910 kPa, x2 = 0.402): 0.962 ± 0.0001
- compressibility factor (343.15 K, 918.6 kPa, x2 = 0.787): 0.9691 ± 0.0001
- compressibility factor (343.15 K, 933.5 kPa, x2 = 0.591): 0.9646 ± 0.0001
- compressibility factor (343.15 K, 975.3 kPa, x2 = 0.18): 0.9536 ± 0.0001
- compressibility factor (343.15 K, 1336.1 kPa, x2 = 0.402): 0.9436 ± 0.0001
- compressibility factor (343.15 K, 1353.5 kPa, x2 = 0.787): 0.9539 ± 0.0001
- compressibility factor (343.15 K, 1372.4 kPa, x2 = 0.591): 0.9474 ± 0.0001
- compressibility factor (343.15 K, 1426.1 kPa, x2 = 0.18): 0.9315 ± 0.0001
- compressibility factor (343.15 K, 1943.4 kPa, x2 = 0.402): 0.9169 ± 0.0001
- compressibility factor (343.15 K, 1979.2 kPa, x2 = 0.787): 0.9318 ± 0.0001
- compressibility factor (343.15 K, 1999.6 kPa, x2 = 0.591): 0.9222 ± 0.0001
- compressibility factor (343.15 K, 2061.5 kPa, x2 = 0.18): 0.8996 ± 0.0001
- compressibility factor (343.15 K, 2787.5 kPa, x2 = 0.402): 0.8786 ± 0.0001
- compressibility factor (343.15 K, 2861 kPa, x2 = 0.787): 0.8998 ± 0.0001
- compressibility factor (343.15 K, 2876.3 kPa, x2 = 0.591): 0.8861 ± 0.0001
- compressibility factor (343.15 K, 2930.2 kPa, x2 = 0.18): 0.8542 ± 0.0001
- compressibility factor (343.15 K, 3914.8 kPa, x2 = 0.402): 0.8243 ± 0.0001
- compressibility factor (343.15 K, 4057.2 kPa, x2 = 0.591): 0.835 ± 0.0001
- compressibility factor (343.15 K, 4064.7 kPa, x2 = 0.18): 0.7916 ± 0.0001
- compressibility factor (343.15 K, 4064.8 kPa, x2 = 0.787): 0.8541 ± 0.0001
- compressibility factor (343.15 K, 5337.5 kPa, x2 = 0.402): 0.7508 ± 0.0001
- compressibility factor (343.15 K, 5565.1 kPa, x2 = 0.591): 0.7652 ± 0.0001
- compressibility factor (343.15 K, 5631.7 kPa, x2 = 0.787): 0.7905 ± 0.0001
